What all share (format): cell-based
The target of assay [1] is T1, 17β-hydroxysteroid dehydrogenase type 1 (17β-HSD type 1) (Homo sapiens, UniProt P14061).
T1 construct: expressed in transfected cells; host or cells: MCF-7
T1 sequence (P14061 1-328): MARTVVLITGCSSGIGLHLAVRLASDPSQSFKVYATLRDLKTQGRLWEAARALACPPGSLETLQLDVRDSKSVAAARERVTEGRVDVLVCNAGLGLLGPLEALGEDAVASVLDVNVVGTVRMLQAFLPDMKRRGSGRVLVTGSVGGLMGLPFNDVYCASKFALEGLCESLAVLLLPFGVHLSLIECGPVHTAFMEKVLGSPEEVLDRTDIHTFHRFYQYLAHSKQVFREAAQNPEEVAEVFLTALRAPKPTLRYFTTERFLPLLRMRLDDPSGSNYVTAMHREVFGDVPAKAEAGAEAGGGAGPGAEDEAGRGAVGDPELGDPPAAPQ
Kind of assay: Inhibition of 17β-HSD type 1 in MCF-7 cells stably expressing the isoenzyme (tritium labeled estrone conversion, HPLC). To be noted: MCF7, MCF-7 cells expressing 17β-HSD type 1, 2 nM tritium labeled estrone; for inhibition at 1 µM: 1 μM test compound, read-out: % Inhibition HSD1 1 μM; for inhibition at 10 µM: 10 μM test compound, read-out: % Inhibition HSD1 10 μM. Put shortly: (§1)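 Percent inhibition derived by comparing substrate conversion with versus without compound, quantified by HPLC–radioflow detection after TCA stop. Cells were stably transfected MCF-7 expressing type 1, 2 or 3 enzyme, given 2 nM labeled estrone, estradiol or androstenedione respectively; compounds tested at two concentrations.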

The target in assay [2] is T2, 17β-hydroxysteroid dehydrogenase type 3 (17β-HSD type 3) (Homo sapiens, UniProt P37058).
T2 construct: expressed in transfected cells; host or cells: MCF-7
T2 sequence (P37058 1-310): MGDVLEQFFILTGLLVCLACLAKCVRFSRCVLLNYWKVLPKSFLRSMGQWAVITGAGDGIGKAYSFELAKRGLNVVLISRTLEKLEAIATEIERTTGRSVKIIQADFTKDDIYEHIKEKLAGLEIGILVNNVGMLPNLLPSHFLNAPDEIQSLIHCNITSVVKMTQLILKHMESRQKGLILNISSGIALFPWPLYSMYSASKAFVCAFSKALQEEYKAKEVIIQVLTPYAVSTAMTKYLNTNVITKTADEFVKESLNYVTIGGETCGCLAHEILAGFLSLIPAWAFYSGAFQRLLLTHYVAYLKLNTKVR
Kind of assay: Inhibition of 17β-HSD type 3 in MCF-7 cells stably expressing the isoenzyme (tritium labeled androstenedione conversion, HPLC). To be noted: MCF7, MCF-7 cells expressing 17β-HSD type 3, 2 nM tritium labeled androstenedione; for inhibition at 1 µM: 1 μM test compound, read-out: % Inhibition HSD3 1 μM; for inhibition at 10 µM: 10 μM test compound, read-out: % Inhibition HSD3 10 μM. In a few lines: as §1

Assay [3] concerns the target T3, 17β-hydroxysteroid dehydrogenase type 2 (17β-HSD type 2) (Homo sapiens, UniProt P37059).
T3 construct: expressed in transfected cells; host or cells: MCF-7
T3 sequence (P37059 1-387): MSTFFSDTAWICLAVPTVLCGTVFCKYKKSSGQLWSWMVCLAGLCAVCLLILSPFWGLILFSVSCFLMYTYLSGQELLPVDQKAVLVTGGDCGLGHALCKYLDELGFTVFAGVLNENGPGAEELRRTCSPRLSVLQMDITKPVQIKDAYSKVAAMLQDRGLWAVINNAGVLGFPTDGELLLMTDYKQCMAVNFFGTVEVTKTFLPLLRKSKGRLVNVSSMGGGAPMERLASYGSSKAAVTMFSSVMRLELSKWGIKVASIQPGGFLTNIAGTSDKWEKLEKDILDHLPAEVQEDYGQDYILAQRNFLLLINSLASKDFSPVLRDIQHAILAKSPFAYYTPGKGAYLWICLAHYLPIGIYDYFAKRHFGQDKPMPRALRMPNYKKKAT
Kind of assay: Inhibition of 17β-HSD type 2 in MCF-7 cells stably expressing the isoenzyme (tritium labeled estradiol conversion, HPLC). The note with it: MCF7, MCF-7 cells expressing 17β-HSD type 2, 2 nM tritium labeled estradiol; for inhibition at 1 µM: 1 μM test compound, read-out: % Inhibition HSD2 1 μM; for inhibition at 10 µM: 10 μM test compound, read-out: % Inhibition HSD2 10 μM. Put shortly: as §1

Broadly, the inhibition is the change of the read-out against control, counted positive when it falls. With `COCCn1c(-c2cccs2)nc2sc3c(c2c1=O)CCCC3=O` [No. 75, 3-(2-Methoxyethyl)-2-thiophen-2-yl-6,7-dihydro-3H,5H-benzo[4,5]thieno[2,3-d]pyrimidine-4,8-dione], the inhibition at 1 µM was 14.5% in assay [1], 5% in assay [2] and 20.2% in assay [3]. Further, the inhibition at 10 µM in assay [1] was 11.9%; in assay [2] it was 17%; in assay [3], 23.1%.

`O=c1c2c3c(sc2nc(-c2ccccc2)n1Cc1ccccc1)CCCC3` [No. 56, 3-Benzyl-2-phenyl-5,6,7,8-tetrahydro-3H-benzo[4,5]thieno[2,3-d]pyrimidin-4-one]: the inhibition at 1 µM amounted to 21.3% in assay [1], 14.7% in assay [2] and 18.8% in assay [3]. For the same compound, the inhibition at 10 µM was determined as 33.2% in assay [1], 41.9% in assay [2] and 24.5% in assay [3].

On to `COc1cc(-c2nc3sc4c(O)cc(C)cc4c3c(=O)n2Cc2ccccc2)c(Br)c(OC)c1OC` [No. 690, 3-Benzyl-2-(2-bromo-3,4,5-trimethoxyphenyl)-8-hydroxy-6-methyl-3H-benzo[4,5]thieno[2,3-d]pyrimidin-4-one], for which the inhibition at 1 µM in assay [1] was 17.3%; in assay [2] it was -2.7%; in assay [3] it was 14.2%. For the same compound, the inhibition at 10 µM is 19.2% in assay [1], 6.4% in assay [2] and 23.5% in assay [3].

In the case of `O=Cc1nc2c(c(=O)n1Cc1ccccc1)C1=C(CCCC1)S2(=O)=O` [No. 33, 3-Benzyl-4,9,9-trioxo4,5,6,7,8,9-hexahydro-3H-9lambda*6*-benzo[4,5]thieno[2,3-d]pyrimidine-2-carbaldehyde], the inhibition at 1 µM was 17.6% in assay [1], 1.9% in assay [2] and 16.3% in assay [3]. Moreover, the inhibition at 10 µM amounted to 67.3% in assay [1], 0.1% in assay [2] and 18.7% in assay [3].

`O=C(OCCn1c(-c2cccs2)nc2sc3c(c2c1=O)CCC(Br)(Br)C3=O)c1cccs1` [No. 72, Thiophene-2-carboxylic acid 2-(7,7-dibromo-4,8-dioxo-2-thiohen-2-yl-5,6,7,8-tetrahydro-4H-benzo[4,5]thieno[2,3-d]pyrimidin-3-yl)-ethyl ester]: the inhibition at 1 µM came out at 15.3% in assay [1], 16.1% in assay [2] and 18% in assay [3]. The inhibition at 10 µM worked out at 15.2% in assay [1], 64.4% in assay [2] and 53.9% in assay [3].

On to `COCc1nc2sc3c(c2c(=O)n1-c1ccccc1)CCCC3=O` [No. 37, 2-Methoxymethyl-3-phenyl-6,7-dihydro-3H,5H-benzo[4,5]thieno[2,3-d]pyrimidin-4,8-dione], for which the inhibition at 1 µM in assay [1] was 9.7%; in assay [2] it was 9.2%; in assay [3], -0.2%. The values for the inhibition at 10 µM in assay [1], in assay [2] and in assay [3] were 21.4%, 22.2% and 9%, respectively.

Take `COC(=O)c1nc2sc3c(c2c(=O)n1Cc1ccccc1)CCCC3=O` [No. 32, 3-Benzyl-4,8-dioxo-3,4,5,6,7,8-hexahydro-benzo[4,5]thieno[2,3-d]pyrimidine-2-carboxylic acid methyl ester]: the figures for the inhibition at 1 µM in assay [1], in assay [2] and in assay [3] were 37.2%, 9.6% and 9.8%, respectively. Also, the values for the inhibition at 10 µM in assay [1], in assay [2] and in assay [3] were 86.6%, 70% and 19.5%, respectively.

Turning to `CCCc1nc2sc3c(c2c(=O)n1Cc1ccc(Br)o1)CCC(Br)C3=O` (stereo not drawn) [No. 103, 7-Bromo-3-(5-bromofuran-2-ylmethyl)-2-propyl-6,7-dihydro-3H,5H-benzo[4,5]thieno[2,3-d]pyrimidine-4,8-dione], the inhibition at 1 µM in assay [1] is 16.2%; in assay [2] it was -7.7%; in assay [3] it was 30.7%. The values for the inhibition at 10 µM in assay [1], in assay [2] and in assay [3] were 70.6%, 51.8% and 49.7%, respectively.

In the case of `COc1cc(-c2nc3sc4c(OC(C)=O)cccc4c3c(=O)n2CC(C)C)c(Br)c(OC)c1OC` [No. 118, Acetic acid 2-(2-bromo-3,4,5-trimethoxyphenyl)-3-isobutyl-4-oxo-3,4-dihydro-benzo[4,5]-thieno[2,3-d]pyrimidin-8-yl ester], the inhibition at 1 µM in assay [1] was 31%; in assay [2], 10.8%; in assay [3], 23.6%. The inhibition at 10 µM in assay [1] is 51.5%; in assay [2] it was 24.4%; in assay [3], 24.4%.

As to `COc1cc(-c2nc3sc4c(c3c(=O)n2-c2ccccc2)CCCC4)cc(OC)c1OC` [No. 10, 3-Phenyl-2-(3,4,5-trimethoxyphenyl)-5,6,7,8-tetrahydro-3H-benzo[4,5]thieno[2,3-d]pyrimidin-4-one], the values for the inhibition at 1 µM in assay [1], in assay [2] and in assay [3] were 12.7%, -4.4% and 18.1%, respectively. In addition, the results for the inhibition at 10 µM in assay [1], in assay [2] and in assay [3] were 35.1%, 10.9% and 23.7%, respectively.

For the compound `CCC(C)Cn1c(-c2cc(OC)c(OC)c(OC)c2Cl)nc2sc3c(c2c1=O)CCC(Cl)C3=O` (stereo not drawn) [No. 141, 7-Chloro-2-(2-chloro-3,4,5-trimethoxyphenyl)-3-(2-methylbutyl)-6,7-dihydro-3H,5H-benzo[4,5]thieno[2,3-d]pyrimidine-4,8-dione], the inhibition at 1 µM in assay [1] turned out to be 25%; in assay [2] it was 2.7%; in assay [3] it was 3%. Moreover, the values for the inhibition at 10 µM in assay [1], in assay [2] and in assay [3] were 58.9%, 22.7% and 1.1%, respectively.

Turning to `COc1cccc(-c2nc3sc4c(c3c(=O)n2Cc2ccccc2)CCC(Br)C4=O)c1` (stereo not drawn) [No. 80, 3-Benzyl-7-bromo-2-(m-methoxyphenyl)-6,7-dihydro-3H,5H-benzo[4,5]thieno[2,3-d]pyrimidine-4,8-dione], the results for the inhibition at 1 µM in assay [1], in assay [2] and in assay [3] were 37%, 22.7% and 47.3%, respectively. Also, the values for the inhibition at 10 µM in assay [1], in assay [2] and in assay [3] were 39.3%, 35.4% and 51%, respectively.

Regarding `COc1cc(-c2nc3sc4c(OC(C)=O)cccc4c3c(=O)n2Cc2ccccc2)cc(OC)c1OC` [No. 54, Acetic acid 3-benzyl-2-(3,4,5-trimethoxyphenyl)-4-oxo-3,4-dihydro-benzo[4,5]thieno[2,3-d]pyrimidin-8-yl ester], the inhibition at 1 µM in assay [1] was 35.4%; in assay [2], 24.6%; in assay [3], 17%. The inhibition at 10 µM in assay [1] was 76.7%; in assay [2] it was 55.2%; in assay [3], 59.8%.

In the case of `COc1cc(-c2nc3sc4c(O)cccc4c3c(=O)n2Cc2ccc(Br)o2)cc(OC)c1OC` [No. 122, 3-(5-Bromofuran-2-ylmethy1)-8-hydroxy-2-(3,4,5-trimethoxyphenyl)-3H-benzo[4,5]thieno[2,3-d]pyrimidin-4-one], the inhibition at 1 µM in assay [1] is 13.9%; in assay [2], 9.4%; in assay [3] it was 15.4%. The inhibition at 10 µM amounted to 49% in assay [1], 56.2% in assay [2] and 26.2% in assay [3].

For the origin of these results see US7524853B2 (Solvay Pharmaceuticals B.V., priority 2003, dated 2009).
